{"source": "ChEMBL document CHEMBL3526076", "about": "“Species-dependent and receptor-selective action of bilobalide on the function of constitutive androstane receptor and pregnane X receptor” (Drug Metab Dispos, 2012)", "key": {"[1]": {"target": "T1, Nuclear receptor subfamily 1 group I member 3 (Rattus norvegicus, UniProt Q9QUS1)", "T1 sequence (Q9QUS1 whole entry)": "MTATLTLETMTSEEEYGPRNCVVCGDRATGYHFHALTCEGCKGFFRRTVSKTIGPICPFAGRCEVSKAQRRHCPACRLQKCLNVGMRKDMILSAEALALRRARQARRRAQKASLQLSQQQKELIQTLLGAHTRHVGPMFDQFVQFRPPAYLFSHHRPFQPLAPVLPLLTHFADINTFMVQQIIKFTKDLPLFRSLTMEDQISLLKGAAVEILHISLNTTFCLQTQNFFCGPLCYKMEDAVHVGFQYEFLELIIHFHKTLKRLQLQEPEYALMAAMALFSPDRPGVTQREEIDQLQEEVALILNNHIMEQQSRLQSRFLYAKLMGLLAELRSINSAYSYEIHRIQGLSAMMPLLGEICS", "assay": "Activation of CAR in rat hepatocytes assessed as increase in CYP2B-mediated benzyloxyresorufin O-dealkylation at 30 uM after 24 hrs by spectrofluorometric analysis relative to phenobarbital", "format": "ADME, cell-based, Hepatocyte"}, "[2]": {"target": "T2, Nuclear receptor subfamily 1 group I member 2 (Homo sapiens, UniProt O75469)", "T2 sequence (O75469 whole entry)": "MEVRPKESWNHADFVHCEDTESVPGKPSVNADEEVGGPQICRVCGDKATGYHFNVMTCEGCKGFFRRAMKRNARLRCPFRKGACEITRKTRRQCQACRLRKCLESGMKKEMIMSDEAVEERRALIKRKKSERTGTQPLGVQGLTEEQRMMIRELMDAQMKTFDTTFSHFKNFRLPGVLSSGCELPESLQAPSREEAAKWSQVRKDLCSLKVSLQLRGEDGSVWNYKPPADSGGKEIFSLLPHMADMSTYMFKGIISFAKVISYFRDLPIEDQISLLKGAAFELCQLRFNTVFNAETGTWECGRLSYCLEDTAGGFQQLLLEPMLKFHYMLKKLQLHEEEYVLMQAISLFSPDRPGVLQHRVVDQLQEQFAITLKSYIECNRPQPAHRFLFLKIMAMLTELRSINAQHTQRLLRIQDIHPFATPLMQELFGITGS", "assay": "Activation of human PXR expressed in human HepG2 cells coexpressing CYP3A4 at 0.1 to 100 uM after 24 hrs by dual luciferase reporter gene assay", "format": "ADME, cell-based", "details": "hepg2, 24 h; call rule not given here"}, "[3]": {"target": "T3, Nuclear receptor subfamily 1 group I member 2 (Rattus norvegicus, UniProt Q9R1A7)", "T3 sequence (Q9R1A7 whole entry)": "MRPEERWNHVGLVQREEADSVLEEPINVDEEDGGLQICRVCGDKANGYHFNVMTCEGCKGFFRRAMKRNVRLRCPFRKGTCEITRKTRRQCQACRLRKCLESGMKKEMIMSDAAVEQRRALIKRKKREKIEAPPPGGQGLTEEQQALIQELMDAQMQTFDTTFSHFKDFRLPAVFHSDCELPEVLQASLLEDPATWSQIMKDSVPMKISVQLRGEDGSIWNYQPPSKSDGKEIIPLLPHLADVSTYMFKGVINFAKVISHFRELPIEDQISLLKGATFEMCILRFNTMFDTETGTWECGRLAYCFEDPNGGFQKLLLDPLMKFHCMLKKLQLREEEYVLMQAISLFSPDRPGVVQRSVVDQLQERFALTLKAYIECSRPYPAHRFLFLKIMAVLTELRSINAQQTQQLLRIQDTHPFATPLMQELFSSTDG", "assay": "Activation of PXR in rat hepatocytes assessed as upregulation of CYP3A23 mRNA expression at 1 to 30 uM after 24 hrs by RT-PCR analysis", "format": "ADME, cell-based, Hepatocyte"}, "[4]": {"system": "CAR mRNA", "assay": "Effect on CAR mRNA expression in rat hepatocytes at 30 uM by RT-PCR analysis relative to control", "format": "ADME, cell-based, Hepatocyte", "details": "read-out: FC"}, "[5]": {"system": "PXR mRNA", "assay": "Effect on PXR mRNA expression in human hepatocytes at 10 uM by RT-PCR analysis relative to control", "format": "ADME, cell-based, Hepatocyte", "details": "read-out: FC"}, "[6]": {"system": "PXR mRNA", "assay": "Effect on PXR mRNA expression in human hepatocytes at 25 uM by RT-PCR analysis relative to control", "format": "ADME, cell-based, Hepatocyte", "details": "read-out: FC"}, "[7]": {"target": "T4, Nuclear receptor subfamily 1 group I member 3 (Homo sapiens, UniProt Q14994)", "T4 sequence (Q14994 whole entry)": "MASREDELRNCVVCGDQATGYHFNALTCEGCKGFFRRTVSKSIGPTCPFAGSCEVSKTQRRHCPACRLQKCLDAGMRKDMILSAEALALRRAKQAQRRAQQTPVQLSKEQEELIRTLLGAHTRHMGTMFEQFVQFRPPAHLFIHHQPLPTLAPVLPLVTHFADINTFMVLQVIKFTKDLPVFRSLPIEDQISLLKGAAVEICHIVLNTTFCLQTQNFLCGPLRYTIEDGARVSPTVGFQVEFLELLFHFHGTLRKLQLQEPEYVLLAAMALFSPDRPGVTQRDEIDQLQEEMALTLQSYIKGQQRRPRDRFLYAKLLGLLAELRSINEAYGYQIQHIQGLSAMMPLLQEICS", "assay": "Activation of human CAR expressed in human HepG2 cells coexpressing CYP2B6 at 0.1 to 100 uM after 24 hrs by dual luciferase reporter gene assay", "format": "ADME, cell-based", "details": "hepg2, 24 h"}, "[8]": {"target": "T1, Nuclear receptor subfamily 1 group I member 3", "assay": "Activation of CAR in rat hepatocytes assessed as effect on CYP2B1 mRNA expression at 1 uM after 24 hrs by RT-PCR analysis", "format": "ADME, cell-based, Hepatocyte"}, "[9]": {"target": "T1, Nuclear receptor subfamily 1 group I member 3", "assay": "Activation of CAR in rat hepatocytes assessed as increase in CYP2B-mediated benzyloxyresorufin O-dealkylation at 1 uM after 24 hrs by spectrofluorometric analysis relative to phenobarbital", "format": "ADME, cell-based, Hepatocyte"}, "[10]": {"target": "T2, Nuclear receptor subfamily 1 group I member 2", "assay": "Activation of PXR in human Hu1043 hepatocytes assessed as effect on CYP3A-mediated testosterone 6beta-hydroxylation at 10 to 60 uM after 24 hrs by HPLC analysis", "format": "ADME, cell-based, Hepatocyte"}}, "data": [{"smiles": "CC(C)(C)[C@]1(O)C[C@@H]2OC(=O)C[C@@]23C(=O)O[C@@H]2OC(=O)[C@H](O)[C@]213", "values": [{"measurement": "Activity", "setting": "[1]", "result": 83, "unit": "%"}, {"measurement": "Activity", "setting": "[2]", "result": "Not Active"}, {"measurement": "Activity", "setting": "[3]", "result": "Not Active"}, {"measurement": "fold induction at 30 µM", "setting": "[4]", "result": 1}, {"measurement": "fold induction at 10 µM", "setting": "[5]", "result": 0.7}, {"measurement": "fold induction at 25 µM", "setting": "[6]", "result": 1.2}, {"measurement": "Activity", "setting": "[7]", "result": "Not Active"}, {"measurement": "Activity", "setting": "[8]", "result": "Not Active"}, {"measurement": "Activity", "setting": "[9]", "result": 30, "unit": "%"}, {"measurement": "Activity", "setting": "[10]", "result": "Not Active"}]}]}
